Assay results as given in US20230255953A1, “USE OF ROLUPERIDONE IN PREVENTING RELAPSE IN SCHIZOPHRENIA PATIENTS” (Minerva Neurosciences, Inc., priority 2022, published 2023).

Experiments:
[1] = tested on: patients with negative symptoms of schizophrenia; assay: Study #1 (MIN-101C03): CGI-S and CGI-I; type: in vivo, human; conditions: Week 12 DB, ITT
Experimental: (§1) The CGI-S is a clinician-rated scale that is designed to rate the severity of the patient's illness at the time of assessment, including knowledge of the patient's history, psychosocial circumstances, symptoms, behavior, and the impact of the symptoms on the patient's ability to function relative to the clinician's past experience with patients who have the same diagnosis and similar improvement with treatment. Considering total clinical experience, a patient is assessed on severity of mental illness at the time of rating, where 1=normal (not at all ill); 2=borderline mentally ill; 3=mildly ill; 4=moderately ill; 5=markedly ill; 6=severely ill; or 7=extremely ill.
(§2) The CGI-S and CGI-I were assessed at the timepoints described in Table 7. The CGI-S and CGI-I were exploratory endpoints in Studies MIN-101C03 and MIN-101C07.
Phase 2b Study #1 (also referred to herein as “MIN-101C03”) was a Phase 2b, double-blind (“DB”), placebo-controlled, randomized, multicenter 12-week study to evaluate the efficacy, safety, and tolerability of Roluperidone in patients ≥18 years to ≤60 years with negative symptoms of schizophrenia, followed by a 24-week open-label (“OL”) extension. The primary objective of the study was to evaluate the efficacy of Roluperidone compared to placebo in improving the negative symptoms of schizophrenia as measured by the change from Baseline in the PANSS negative factor score of the PSM (“PANSS PSM”) over 12 weeks of treatment.
The study consisted of a pretreatment screening period of up to 28 days (including washout), a 12-week, DB, placebo-controlled period, and a 24-week OL period. Eligible patients (who were symptomatically stable for at least 3 months and had scores of at least 20 on the PANSS negative subscale score) were randomized in a 1:1:1 ratio to receive oral Roluperidone (a modified-release, “MR”, formulation) 32 mg QD, Roluperidone 64 mg QD, or placebo for 12 weeks. […] During the 24-week, OL treatment extension period, patients who were initially randomized to Roluperidone 32 mg or 64 mg continued on the same dose, while patients who were initially randomized to placebo crossed over to Roluperidone 32 mg or 64 mg in a 1:1 ratio.

[2] = tested on: patients with negative symptoms of schizophrenia; assay: Study #2 (MIN-101C07): CGI-S and CGI-I; type: in vivo, human; conditions: Week 12 DB, ITT
Experimental: as §1, §2
Study #2 (also referred to as “MIN101C07”) was a Phase 3, randomized, DB, placebo-controlled, parallel-group 12-week study to evaluate the efficacy and safety of Roluperidone in patients ≥18 years to ≤55 years with negative symptoms of schizophrenia, followed by a 40-week OL extension. The study consisted of a pretreatment screening period of up to 28 days (including an antipsychotic medication washout period), a 12-week, DB, placebo-controlled period, and a 40-week OL period. Eligible patients (with moderate to severe negative symptoms of schizophrenia and stable positive symptoms but without severe symptoms of suspiciousness, agitation, hostility, uncooperativeness, or poor impulse control) were randomized 1:1:1 to receive Roluperidone 32 mg QD, Roluperidone 64 mg QD (GR01/B formulation, see U.S. Pat. No. 11,464,744), or placebo, orally, for 12 weeks. […] During the 40-week OL treatment extension, patients who were initially randomized to Roluperidone 32 mg or 64 mg continued treatment with the same dose, while patients who were initially randomized to placebo crossed over to Roluperidone 32 mg or 64 mg in a 1:1 ratio.

schizophrenia patient = assay: Case report Patient X: Roluperidone monotherapy over 2+ years; type: in vivo, human; conditions: 64 mg/day monotherapy, two years
Experimental: Patient X presented with flat effect and restricted emotional expression, poor motivation to do much more than watch television and occasionally participate in occupational therapy for a few hours a week. Patient could not fully concentrate enough to even read. During the course of monotherapy with Roluperidone (64 mg/day), patient saw gradual improvement in their negative and cognitive symptoms. This allowed the patient to find employment. Their affect is no longer restricted and they read full novels on a regular basis with no trouble concentrating, and enjoys and looks forward to all their various daily activities.

sigma2 = sigma2 (Homo sapiens, UniProt Q5BJF2); conditions: background statement; cited from earlier work
sigma2, sequence (Q5BJF2 whole entry): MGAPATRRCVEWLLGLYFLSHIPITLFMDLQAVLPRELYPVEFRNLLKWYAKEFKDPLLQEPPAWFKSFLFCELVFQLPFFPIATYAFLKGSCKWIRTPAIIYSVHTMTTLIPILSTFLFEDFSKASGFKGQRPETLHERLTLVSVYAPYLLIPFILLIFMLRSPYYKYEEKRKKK

α1A-adrenergic = molecular target: T1, α1A-adrenergic (Homo sapiens, UniProt P35348); conditions: background statement; cited from earlier work
T1 sequence (P35348 1-466): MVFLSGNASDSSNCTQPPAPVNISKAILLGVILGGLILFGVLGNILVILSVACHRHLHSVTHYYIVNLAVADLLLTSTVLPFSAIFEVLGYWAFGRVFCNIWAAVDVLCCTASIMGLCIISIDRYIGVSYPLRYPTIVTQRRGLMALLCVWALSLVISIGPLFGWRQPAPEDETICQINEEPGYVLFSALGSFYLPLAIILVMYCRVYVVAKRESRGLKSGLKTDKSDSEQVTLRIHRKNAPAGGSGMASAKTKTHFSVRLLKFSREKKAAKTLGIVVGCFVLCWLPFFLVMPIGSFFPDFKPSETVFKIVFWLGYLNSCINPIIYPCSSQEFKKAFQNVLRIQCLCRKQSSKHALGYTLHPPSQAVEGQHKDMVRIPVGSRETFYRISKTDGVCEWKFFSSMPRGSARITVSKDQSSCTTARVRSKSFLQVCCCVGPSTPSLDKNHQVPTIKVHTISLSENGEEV

[3] = tested on: dopaminergic (DA) receptors; conditions: background statement; cited from earlier work
muscarinic receptors = conditions: background statement; cited from earlier work

For “1H-Isoindol-1-one,2-[ [1-[2-(4-fluorophenyl)-2-oxoethyl]-4-piperidinyl]methyl]-2,3-dihydro-, hydrochloride, hydrate (1:1:2) [Roluperidone]”, the “Change from Baseline: Clinical Global Impression of Severity (observed change)” value ([1]; 32 mg QD) was −0.40, the “Effect Size vs Placebo: Clinical Global Impression of Improvement” value ([1]; 32 mg QD) was 0.33 and the “Effect Size vs Placebo: Clinical Global Impression of Severity” value ([1]; 32 mg QD) was 0.35. For the same substance, the “Change from Baseline: Clinical Global Impression of Severity (observed change)” value ([1]; 64 mg QD) was −0.40 (0.1), the “Effect Size vs Placebo: Clinical Global Impression of Improvement” value ([1]; 64 mg QD) was 0.57 and the “Effect Size vs Placebo: Clinical Global Impression of Severity” value ([1]; 64 mg QD) was 0.43. For the same substance, the “Change from Baseline LS Mean: Clinical Global Impression of Severity” value ([2]; 32 mg QD) was −0.4, the “Clinical Global Impression of Improvement, LS Mean (observed data, MMRM)” value ([2]; 32 mg QD) was 3.4 and the “Effect Size (Cohen's d) vs Placebo: Clinical Global Impression of Improvement” value ([2]; 32 mg QD) was −0.12. For the same substance, the “Effect Size (Cohen's d) vs Placebo: Clinical Global Impression of Severity” value ([2]; 32 mg QD) was 0.12, the “Change from Baseline LS Mean: Clinical Global Impression of Severity” value ([2]; 64 mg QD) was −0.5 and the “Clinical Global Impression of Improvement, LS Mean (observed data, MMRM)” value ([2]; 64 mg QD) was 3.3. The “Effect Size (Cohen's d) vs Placebo: Clinical Global Impression of Improvement” value ([2]; 64 mg QD) was 0.02, the “Effect Size (Cohen's d) vs Placebo: Clinical Global Impression of Severity” value ([2]; 64 mg QD) was 0.24 and the Relapse under monotherapy (schizophrenia patient) was “has not had a relapse”. The Antagonistic activity (sigma2) was “antagonistic activities”, the Antagonistic activity (α1A-adrenergic) was “antagonistic activities” and the Affinity [3] was “very low or no affinity”. The Affinity (muscarinic receptors) was “very low or no affinity”.
